Consider 5 compounds from patent US10941157B2, “Pesticidal compositions and uses thereof” (Gilead Apollo, LLC, priority 2015, dated 2021).

In brackets after ≈: the same amount, converted by molar mass.

In assay [1] the test system is Botrtyis cinerea (Bc). Nature of the assay: In vitro pathogen growth inhibition assay, Bc. The conditions noted are these: 48 h, ≥90% growth inhibition; 48 hours; vs 2% DMSO control; read-out: Compound Concentration (ppm) sufficient for ≥90% inhibition of Bc. Type of assay: cell-based. In outline:
(§1)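 Value reported is the compound concentration reaching ≥90% growth inhibition, from OD readings at 24 and 48 h after blank subtraction, confirmed visually. Inoculum was spores diluted in 17% V8 medium, except Rs, using 1.5 mm mycelial plugs in ¼ PDB; actual compound concentration corrected via OD600.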

The subject of assay [2] is Phytophthora capsici (Pc). Description: In vitro pathogen growth inhibition assay, Pc. Type of assay: cell-based. The conditions noted are these: 48 h, ≥90% growth inhibition, 48 hours, vs 2% DMSO control, read-out: Compound Concentration (ppm) sufficient for ≥90% inhibition of Pc. Summed up:
(§2)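 Spores of Dm, Fv and Pc were diluted in 17% V8 liquid medium; Rs used 1.5 mm mycelial plugs in ¼ PDB. Compounds from 2.5 mg/ml DMSO stocks were combined with inoculum, growth was read by OD600 at 24 and 48 h with blank subtraction, and the reported value is the concentration giving ≥90% inhibition.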

The test system of assay [3] is Fusarium moniliforme (Fm). Nature of the assay: In vitro pathogen growth inhibition assay, Fm. Type of assay: cell-based. The conditions noted are these: Fusarium verticillioides; ≥90% growth inhibition; 48 hours; vs 2% DMSO control; read-out: Compound Concentration (ppm) sufficient for ≥90% inhibition of Fm. Summed up: as §1
The test system of assay [4] is Mycosphaerella graminicola (synthetic Septoria tritici). Description: Foliar protection test for wheat septoria leaf blotch control. Type of assay: in vivo. The conditions noted are these: foliar spray on Triticum aestivum cv. WinterHawk, inoculated 1 hour after treatment, evaluated 16 days later.
In assay [5] the test system is Fusarium graminearum. Type of assay: in vivo. The conditions noted are these: spray on flowering Triticum aestivum cv. Samson, inoculated 24 hours after treatment, evaluated 14 days later.
The test system of assay [6] is Septoria tritici (St). Description: In vitro pathogen growth inhibition assay, St. Type of assay: cell-based. The following applies: Zymoseptoria tritici, 48 h, ≥90% growth inhibition; 48 hours; vs 2% DMSO control; read-out: Compound Concentration (ppm) sufficient for ≥90% inhibition of St. In outline: as §1
The test system of assay [7] is Rhizoctonia solani (Rs). Description: In vitro pathogen growth inhibition assay, Rs (mycelial plugs). Type of assay: cell-based. The following applies: Rhizoctonia solani, 48 h, ≥90% growth inhibition; mycelial plugs; 48 hours; vs 2% DMSO control; read-out: Compound Concentration (ppm) sufficient for ≥90% inhibition of Rs. In outline:
as §2

Assay [8] concerns Blumeria graminis f. sp. hordei. Description: Foliar protection test for barley powdery mildew control. The following applies: foliar spray on Hordeum vulgare cv. Perry, inoculated 24 hours after treatment, evaluated 7 days later. Type of assay: in vivo. In outline: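 Protective foliar test: compound atomized onto both leaf surfaces of 6-day-old Hordeum vulgare cv. Perry, followed after 24 h by spore-cloud inoculation from colonized untreated plants. Disease rated on leaves 7 days on, plants held at 20 to 22° C and 70% RH.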

Assay [9] deals with Collectotrichum graminicola (Cg). Description: In vitro pathogen growth inhibition assay, Cg. Type of assay: cell-based. The following applies: 48 h, ≥90% growth inhibition; 48 hours; vs 2% DMSO control; read-out: Compound Concentration (ppm) sufficient for ≥90% inhibition of Cg. In outline: as §1
Assay [10] concerns Diplodia maydis (Dm). Nature of the assay: In vitro pathogen growth inhibition assay, Dm. Type of assay: cell-based. The following applies: Stenocarpella maydis, 48 h, ≥90% growth inhibition; 48 hours; vs 2% DMSO control; read-out: Compound Concentration (ppm) sufficient for ≥90% inhibition of Dm. Summed up: as §2
Assay [11] concerns Fusarium virguliforme (Fv). Description: In vitro pathogen growth inhibition assay, Fv. The conditions noted are these: ≥90% growth inhibition, 48 hours, vs 2% DMSO control, read-out: Compound Concentration (ppm) sufficient for ≥90% inhibition of Fv. Type of assay: cell-based. In outline:
as §2

For assay [12], the system named is Puccinia triticina. Description: Foliar protection test for wheat leaf rust control. The following applies: foliar application to wheat (Triticum aestivum cv. Winterhawk), evaluated 10 days later. Type of assay: in vivo.
For assay [13], the system named is Sphaerotheca fuliginea. Nature of the assay: Foliar protection for cucumber powdery mildew control. Type of assay: in vivo. The following applies: foliar spray on Cucumis sativus cv. Straight Eight, inoculated 24 hours after treatment, evaluated 7 days later. In outline: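 Protective foliar spray on 10-day-old Straight Eight cucumbers, with S. fuliginea spores dusted from infected stock plants 24 h after treatment. Disease developed at 23–27 °C, 60% RH and a 16 h photoperiod. Leaves were rated for mildew growth after 7 days; test rates 10 ppm or below.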

The test system of assay [14] is Phakopsora pachyrhizi. Nature of the assay: Foliar protection test for Asian soybean rust control. Type of assay: in vivo. The following applies: foliar application to soybean (Glycine max AG4832), percent disease area evaluated 14 days later.

For the compound `COc1ccc(F)cc1[C@@](C)(Cn1c(=O)n(C(C)(C)C(=O)NC(C)C)c(=O)c2c(C)c(-n3nccn3)sc21)OCCC#N` [Compound I-274, (S)-2-(1-(2-(2-cyanoethoxy)-2-(5-fluoro-2-methoxyphenyl)propyl)-5-methyl-2,4-dioxo-6-(2H-1,2,3-triazol-2-yl)-1,4-dihydrothieno[2,3-d]pyrimidin-3 (2H)-yl)-N-isopropyl-2-methylpropanamide], the IC90 in [1] is 0.4 µg/mL (≈ 0.654 µM); in assay [2], 2 µg/mL (≈ 3.27 µM); in assay [3], 0.08 µg/mL (≈ 0.131 µM); in assay [6], more than 50 µg/mL; in [7], 0.08 µg/mL (≈ 0.131 µM); in assay [9], 0.08 µg/mL (≈ 0.131 µM). The IC90 in assay [10] and in assay [11] was 0.4 µg/mL (≈ 0.654 µM) throughout. In assay [4], the “Septoria Leaf Blotch Control at a compound concentration of 25 ppm or lower” value was “AA (≥85% control of wheat septoria leaf blotch)”. Further, the “Wheat Fusarium Head Blight Control at a compound concentration of 25 ppm or lower” value in assay [5] was “C (from 25 to 49% control of wheat fusarium head blight)”. Besides, in assay [8], the “Barley Powdery Mildew Control at a compound concentration of 10 ppm or lower” value is on record as “AA (≥85% control of barley powdery mildew)”. The “Wheat Leaf Rust Control at a compound concentration of 10 ppm or lower” value (“Wheat Leaf Rust Control … of 10 ppm or lower” for short) in assay [12] is “AA (≥85% control of wheat leaf rust)”. Also, the “Cucumber Powdery Mildew Control at a compound concentration of 10 ppm or lower” value in [13] is “AA (≥85% control of cucumber powdery mildew)”. Moreover, the “Asian Soybean Rust Control at a compound concentration of 25 ppm or lower” value (shortened to “Asian Soybean Rust Control … of 25 ppm or lower”) in assay [14] is “A (from 70% to 84% control of Asian soybean rust)”.

In the case of `CCc1ccc(F)cc1[C@H](Cn1c(=O)n(C(C)(C)C(=O)NC(C)C)c(=O)c2c(C)c(-n3nccn3)sc21)OC[C@@H](C)C#N` [Compound I-281, 2-(1-((R)-2-((S)-2-cyanopropoxy)-2-(2-ethyl-5-fluorophenyl)ethyl)-5-methyl-2,4-dioxo-6-(2H-1,2,3-triazol-2-yl)-1,4-dihydrothieno[2,3-d]pyrimidin-3 (2H)-yl)-N-isopropyl-2-methylpropanamide], the IC90 in [1] was 0.08 µg/mL (≈ 0.131 µM); in assay [2], more than 50 µg/mL; in assay [3], 0.08 µg/mL (≈ 0.131 µM); in assay [6] it was more than 50 µg/mL; in [7], 0.08 µg/mL (≈ 0.131 µM); in assay [9], 0.08 µg/mL (≈ 0.131 µM). Moreover, the IC90 in [10] was determined as 2 µg/mL (≈ 3.28 µM); in [11], 0.08 µg/mL (≈ 0.131 µM). For the same compound, the “Septoria Leaf Blotch Control at a compound concentration of 25 ppm or lower” value in assay [4] is given as “AA (≥85% control of wheat septoria leaf blotch)”. The “Wheat Fusarium Head Blight Control at a compound concentration of 25 ppm or lower” value in assay [5] was “C (from 25 to 49% control of wheat fusarium head blight)”. Moreover, in assay [8], the “Barley Powdery Mildew Control at a compound concentration of 10 ppm or lower” value was “AA (≥85% control of barley powdery mildew)”. The “Wheat Leaf Rust Control … of 10 ppm or lower” value in assay [12] was “AA (≥85% control of wheat leaf rust)”. Further, the “Cucumber Powdery Mildew Control at a compound concentration of 10 ppm or lower” value in assay [13] is “AA (≥85% control of cucumber powdery mildew)”. Moreover, the “Asian Soybean Rust Control … of 25 ppm or lower” value in assay [14] was “D (<25% control of Asian soybean rust)”.

For `CCc1ccc(F)cc1[C@H](Cn1c(=O)n(C(C)(C)C(=O)NC(C)C)c(=O)c2c(C)c(-n3nccn3)sc21)OC[C@H](C)C#N` [Compound I-284, 2-(1-((R)-2-((R)-2-cyanopropoxy)-2-(2-ethyl-5-fluorophenyl)ethyl)-5-methyl-2,4-dioxo-6-(2H-1,2,3-triazol-2-yl)-1,4-dihydrothieno[2,3-d]pyrimidin-3 (2H)-yl)-N-isopropyl-2-methylpropanamide], the IC90 in assay [1] is 0.4 µg/mL (≈ 0.656 µM); in [2], more than 50 µg/mL; in assay [3], 0.08 µg/mL (≈ 0.131 µM); in assay [6] it was more than 50 µg/mL; in assay [7], 0.08 µg/mL (≈ 0.131 µM); in assay [9] it was 0.08 µg/mL (≈ 0.131 µM). For the same compound, the IC90 turned out to be 2 µg/mL (≈ 3.28 µM) in [10] and 0.4 µg/mL (≈ 0.656 µM) in [11]. Besides, the “Septoria Leaf Blotch Control at a compound concentration of 25 ppm or lower” value in assay [4] was “AA (≥85% control of wheat septoria leaf blotch)”. Also, in [5], the “Wheat Fusarium Head Blight Control at a compound concentration of 25 ppm or lower” value was “C (from 25 to 49% control of wheat fusarium head blight)”. In addition, the “Barley Powdery Mildew Control at a compound concentration of 10 ppm or lower” value in assay [8] is reported as “AA (≥85% control of barley powdery mildew)”. Further, the “Wheat Leaf Rust Control … of 10 ppm or lower” value in [12] is “AA (≥85% control of wheat leaf rust)”. For the same compound, the “Cucumber Powdery Mildew Control at a compound concentration of 10 ppm or lower” value in assay [13] is listed as “AA (≥85% control of cucumber powdery mildew)”. The “Asian Soybean Rust Control … of 25 ppm or lower” value in [14] was “B (from 50 to 69% control of Asian soybean rust)”.

`CCOC(=O)c1sc2c(c1C)c(=O)n(C(C)(C)C(=O)NC(C)C)c(=O)n2C[C@H](OCCS(C)(=O)=O)c1cc(F)ccc1OC` [Compound I-285, (R)-ethyl-1-(2-(5-fluoro-2-methoxyphenyl)-2-(2-(methylsulfonyl)ethoxy)ethyl)-3-(1-(isopropylamino)-2-methyl-1-oxopropan-2-yl)-5-methyl-2,4-dioxo-1,2,3,4-tetrahydrothieno[2,3-d]pyrimidine-6-carboxylate]: the IC90 in [1] is 2 µg/mL (≈ 3.05 µM); in assay [2], 50 µg/mL (≈ 76.2 µM); in assay [3], 0.4 µg/mL (≈ 0.61 µM); in [6], not below 50 µg/mL; in assay [7], 0.4 µg/mL (≈ 0.61 µM); in assay [9], 0.4 µg/mL (≈ 0.61 µM). Further, the IC90 in assay [10] is not below 2 µg/mL; in assay [11], 2 µg/mL (≈ 3.05 µM). Besides, in [4], the “Septoria Leaf Blotch Control at a compound concentration of 25 ppm or lower” value is listed as “C (from 25 to 49% control of wheat septoria leaf blotch)”. In assay [5], the “Wheat Fusarium Head Blight Control at a compound concentration of 25 ppm or lower” value is given as “C (from 25 to 49% control of wheat fusarium head blight)”. Besides, the “Barley Powdery Mildew Control at a compound concentration of 10 ppm or lower” value in assay [8] is listed as “A (from 70% to 84% control of barley powdery mildew)”. Besides, the “Wheat Leaf Rust Control … of 10 ppm or lower” value in [12] was “AA (≥85% control of wheat leaf rust)”. Also, the “Cucumber Powdery Mildew Control at a compound concentration of 10 ppm or lower” value in assay [13] is on record as “AA (≥85% control of cucumber powdery mildew)”. The “Asian Soybean Rust Control … of 25 ppm or lower” value in assay [14] is reported as “C (from 25 to 49% control of Asian soybean rust)”.

For the compound `COc1ccc(F)cc1[C@H](Cn1c(=O)n(C(C)(C)C(=O)NC(C)C)c(=O)c2c(C)c(-n3nccn3)sc21)OCCS(C)(=O)=O` [Compound I-287, (R)-2-(1-(2-(5-fluoro-2-methoxyphenyl)-2-(2-(methylsulfonyl)ethoxy)ethyl)-5-methyl-2,4-dioxo-6-(2H-1,2,3-triazol-2-yl)-1,4-dihydrothieno[2,3-d]pyrimidin-3 (2H)-yl)-N-isopropyl-2-methylpropanamide], the IC90 in assay [1] was 2 µg/mL (≈ 3.07 µM); in [2] it was 10 µg/mL (≈ 15.4 µM); in [3] it was 0.4 µg/mL (≈ 0.615 µM); in [6] it was not below 50 µg/mL; in assay [7], 0.08 µg/mL (≈ 0.123 µM); in assay [9] it was 0.4 µg/mL (≈ 0.615 µM). For the same compound, the IC90 was determined as 0.4 µg/mL (≈ 0.615 µM) in [10] and 2 µg/mL (≈ 3.07 µM) in assay [11]. In assay [4], the “Septoria Leaf Blotch Control at a compound concentration of 25 ppm or lower” value was “AA (≥85% control of wheat septoria leaf blotch)”. The “Wheat Fusarium Head Blight Control at a compound concentration of 25 ppm or lower” value in [5] is given as “C (from 25 to 49% control of wheat fusarium head blight)”. Further, in assay [8], the “Barley Powdery Mildew Control at a compound concentration of 10 ppm or lower” value is recorded as “AA (≥85% control of barley powdery mildew)”. Moreover, the “Wheat Leaf Rust Control … of 10 ppm or lower” value in assay [12] is “AA (≥85% control of wheat leaf rust)”. In [13], the “Cucumber Powdery Mildew Control at a compound concentration of 10 ppm or lower” value is given as “AA (≥85% control of cucumber powdery mildew)”. Also, the “Asian Soybean Rust Control … of 25 ppm or lower” value in [14] is listed as “AA (≥85% control of Asian soybean rust)”.
